Consider 6 molecules from patent US11267810B2, “Aminopyrimidine compound and composition comprising same and use thereof” (Shenzhen TargetRx, Inc., priority 2017, dated 2022).

Like-named read-outs stand apart in the source and are kept apart here.

For data set [1], the system named is lung cancer cells NCI-H1975 (L858R/T790M). Kind of data set: MTS cell viability assay, NCI-H1975. The format is cell-based. Conditions: Homo sapiens, 72 hours. How it is done:
(§1) Cell line: Skin cancer cell line A431 (purchased from the American Type Culture Collection (ATCC)); lung cancer cells NCI-H1975 (purchased from the American Type Culture Collection (ATCC)) and HCC827 (purchased from the American Type Culture Collection (ATCC)). All of the cells were cultured in RPMI1640 medium containing 10% fetal bovine serum, 100 U/ml penicillin, and 100 μg/ml streptomycin.
(§2) Reagents and materials: RPMI-1640 (GIBCO, Cat. No. A10491-01); fetal bovine serum (GIBCO, Cat. No. 10099141); 0.25% trypsin-EDTA (GIBCO, Cat. No. 25200); penicillin-streptomycin, liquid (GIBCO, Cat. No. 15140-122); DMSO (Sigma, Cat. No. D2650); MTS Test Kit (Promega, Cat. No. G3581), 96-well plate (Corning, Cat. No. 3365).
(§3) Compound preparation: the test compound was dissolved in DMSO to make a 20 mM stock solution and stored at −20° C. It was diluted in DMSO with a 3-fold series gradient dilution for 10 times. The dilutions were diluted 4 fold with cell culture medium.
(§4) MTS cell viability assay: cells in logarithmic growth phase was digested with 0.25% trypsin-EDTA, and 150 μl of the cells was inoculated in 96-well plates at an optimized density. After 24 hours, the compound diluted 4 fold by adding the medium, 50 μl/well (generally 10 Concentrations were selected: 100, 33.3, 11.1, 3.70, 1.23, 0.412, 0.137, 0.0457, 0.0152, 0.00508 μM). A well added with the same volume of 0.5% DMSO was used as a control. After the cells were cultured for further 72 hours, the cell viability was detected with MTS.
(§5) Specific procedure: cells were adhered, the medium was discarded, and a mixture containing 20 μL MTS and 100 μL medium was added to each well. The OD490 was detected after being placed in the incubator for 1-4 hours, and the OD650 value was used as a reference. A dose-effect curve was prepared using GraphPad Prism software and IC50 was calculated.

Data set [2] deals with lung cancer cells HCC827 (Del19). Kind of data set: MTS cell viability assay, HCC827. The format is cell-based. The conditions noted are these: Homo sapiens, 72 hours. How it is done:
as §1, §2, §3, §4, §5
Background: Formazan colour is commonly taken as a measure of viable cells.

Data set [3] has as its system EGFR mutant kinase. The conditions noted are these: cited from earlier work.
Data set [4] concerns Skin cancer cell line A431 (WT). In words: MTS cell viability assay, A431. The data set is classed as cell-based. Conditions: Homo sapiens, A-431, 72 hours. The procedure:
as §1, §2, §3, §4, §5

In data set [5] the target is EGFR [L858R/T790M] (Homo sapiens (Human), UniProt P00533, L858R/T790M). In words: EGFR [L858R/T790M] kinase assay (HTRF Kinase TK kit). The format is biochemical. From the text: (§6) WT EGFR (Cana, Cat. No. 08-115), EGFR [L858R] (Carna, Cat. No. 08-502), EGFR [L858R/T790M] (Carna, Cat. No. 08-510), ATP (Sigma, Cat. No. A7699-1G), DMSO (Sigma, Cat. No. D2650), 96-well plate (Corning, Cat. No. 3365), 384-well plate (Greiner, Cat. No. 784076), HTRF Kinase TK Kit (Cisbio, Cat. No. 62TK0PEJ), Erlotinib (Selleckchem, Cat. No. S7787), EGFR [d746-750] (Life Technologies, Cat. No. PV6178), 5× Kinase Buffer A (Life Technologies, Cat. No. PV3186), Kinase Tracer 199 (Life Technologies, Cat. No. PV5830), LanthaScreen® Eu-anti-GST antibody (Life Technologies, Cat. No. PV5594).
(§7) Compound preparation: the test compound was dissolved in DMSO to make a 20 mM stock solution. Then, it was diluted in DMSO with a 3-fold series gradient dilution for 10 times. The dilutions were diluted 10 fold with buffer when dosing.
(§8) WT EGFR and EGFR [L858R/T790M] kinase assay: WT EGFR or EGFR [L858R/T790M] kinase was mixed with different concentrations of pre-diluted compounds for 10 minutes in 5× Kinase Buffer A in duplicate. The corresponding substrate and ATP were added and reacted at room temperature for 20 minutes (in which a negative and a positive control were set: the negative control is blank and the positive control is AZD9291). After the reaction, the detection reagent (the reagent in the HTRF Kinase TK kit) was added, and after incubation at room temperature for 30 minutes, the enzyme activity in the presence of the compounds of the present disclosure at each concentration was measured by an Evnvision microplate reader, and the inhibition of the enzyme by the compound at each concentrations were calculated. The inhibitions of the enzyme activity by the compounds at different concentrations were then fitted using Graphpad 5.0 software according to the four-parameter equation, and the IC50 values were calculated.
In general terms: Time-resolved FRET reads energy transfer from a long-lived donor to a nearby acceptor.

The target in data set [6] is WT EGFR (Homo sapiens (Human), UniProt P00533). Kind of data set: WT EGFR kinase assay (HTRF Kinase TK kit). The format is biochemical.
Excerpt: as §6, §7, §8

Data set [7] in a line: Pharmacokinetic experiment in rats. The data set is classed as in vivo, Sprague-Dawley rats. Conditions: rat; for AUC(0-t) / Cmax / Tmax / half-life / AUC(0-inf) / clearance / MRT inf / Vd / bioavailability: male, Sprague-Dawley, plasma; for AUC(0-inf): read-out: AUCINF—pred; for clearance: read-out: Cl—pred (converted); for MRT inf: read-out: MRTINF—pred; for Vd: read-out: Vz—pred; for bioavailability: PO 10 mg/kg vs IV 0.5 mg/kg. The procedure: Six male Sprague-Dawley rats, 7 to 8 weeks old, weighing approximately 210 g, were divided into 2 groups with 3 rats in each group. The pharmacokinetic differences were compared after administering to the rats a single dose of compounds through vein (in vein 0.5 mg/kg) or mouth (orally 10 mg/kg).
The rats were fed with standard feed, given water, and fasted 16 hours before the experiment. The drugs were dissolved with PEG400 and dimethyl sulfoxide. Orbital blood was collected at the time point of 0.083, 0.25, 0.5, 1, 2, 4, 6, 8, 12 and 24 hours after administration.
The rats were anesthetized for a short time after inhaling ether, and 300 μL of blood sample was collected from the orbit and put into a test tube, which contains 30 μL of 1% heparin salt solution. The test tubes were dried overnight at 60° C. prior to use. After the blood sample collection at the last time point, the rats were killed after the ether anesthesia.
Immediately after the blood sample collection, the test tubes were gently inverted at least 5 times to ensure the fully mixing and placed them on ice. The blood samples were centrifuged at 4° C., 5000 rpm for 5 minutes to separate the plasma from the red blood cells. 100 μL of plasma was pipetted into a clean plastic centrifuge tube, with the name of the compound and time point on it. The plasma was stored at −80° C. before analysis, and LC-MS/MS was used to determine the concentration of the compounds disclosed herein in plasma. Pharmacokinetic parameters were calculated based on the plasma concentrations of each animal at different time points.

EGFR [L858R/T790M], sequence (P00533 25-1210 T790M/L858R): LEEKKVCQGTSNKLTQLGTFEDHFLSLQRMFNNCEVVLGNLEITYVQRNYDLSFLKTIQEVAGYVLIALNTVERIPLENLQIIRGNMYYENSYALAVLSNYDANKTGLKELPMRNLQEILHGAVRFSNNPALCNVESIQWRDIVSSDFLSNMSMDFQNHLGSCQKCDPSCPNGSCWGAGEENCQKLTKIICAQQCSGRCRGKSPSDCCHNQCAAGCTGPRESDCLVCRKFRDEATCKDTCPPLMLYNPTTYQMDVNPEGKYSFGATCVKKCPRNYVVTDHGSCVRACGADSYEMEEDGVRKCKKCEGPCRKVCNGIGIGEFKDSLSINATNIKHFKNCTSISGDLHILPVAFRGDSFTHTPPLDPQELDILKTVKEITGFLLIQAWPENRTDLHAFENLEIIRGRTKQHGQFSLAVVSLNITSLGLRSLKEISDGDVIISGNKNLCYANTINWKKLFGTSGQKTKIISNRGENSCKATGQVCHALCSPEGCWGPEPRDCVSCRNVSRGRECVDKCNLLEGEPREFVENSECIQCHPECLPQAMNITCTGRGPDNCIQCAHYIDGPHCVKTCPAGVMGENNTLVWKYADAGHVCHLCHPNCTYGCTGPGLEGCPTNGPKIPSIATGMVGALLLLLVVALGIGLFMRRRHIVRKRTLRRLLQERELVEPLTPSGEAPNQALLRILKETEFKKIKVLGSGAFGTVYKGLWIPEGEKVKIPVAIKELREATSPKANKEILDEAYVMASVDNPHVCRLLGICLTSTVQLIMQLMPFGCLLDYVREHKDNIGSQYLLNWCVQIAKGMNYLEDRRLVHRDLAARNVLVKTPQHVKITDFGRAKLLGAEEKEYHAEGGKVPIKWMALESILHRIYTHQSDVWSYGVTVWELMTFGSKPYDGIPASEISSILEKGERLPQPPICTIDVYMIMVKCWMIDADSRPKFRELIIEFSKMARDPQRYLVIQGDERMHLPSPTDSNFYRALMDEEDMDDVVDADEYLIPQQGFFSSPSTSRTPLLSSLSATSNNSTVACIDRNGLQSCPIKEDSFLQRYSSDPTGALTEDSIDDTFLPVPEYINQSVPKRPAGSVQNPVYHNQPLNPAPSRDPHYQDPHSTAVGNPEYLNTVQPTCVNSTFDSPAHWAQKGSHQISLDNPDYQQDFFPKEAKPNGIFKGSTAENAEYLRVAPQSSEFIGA
WT EGFR, sequence (P00533 25-1210): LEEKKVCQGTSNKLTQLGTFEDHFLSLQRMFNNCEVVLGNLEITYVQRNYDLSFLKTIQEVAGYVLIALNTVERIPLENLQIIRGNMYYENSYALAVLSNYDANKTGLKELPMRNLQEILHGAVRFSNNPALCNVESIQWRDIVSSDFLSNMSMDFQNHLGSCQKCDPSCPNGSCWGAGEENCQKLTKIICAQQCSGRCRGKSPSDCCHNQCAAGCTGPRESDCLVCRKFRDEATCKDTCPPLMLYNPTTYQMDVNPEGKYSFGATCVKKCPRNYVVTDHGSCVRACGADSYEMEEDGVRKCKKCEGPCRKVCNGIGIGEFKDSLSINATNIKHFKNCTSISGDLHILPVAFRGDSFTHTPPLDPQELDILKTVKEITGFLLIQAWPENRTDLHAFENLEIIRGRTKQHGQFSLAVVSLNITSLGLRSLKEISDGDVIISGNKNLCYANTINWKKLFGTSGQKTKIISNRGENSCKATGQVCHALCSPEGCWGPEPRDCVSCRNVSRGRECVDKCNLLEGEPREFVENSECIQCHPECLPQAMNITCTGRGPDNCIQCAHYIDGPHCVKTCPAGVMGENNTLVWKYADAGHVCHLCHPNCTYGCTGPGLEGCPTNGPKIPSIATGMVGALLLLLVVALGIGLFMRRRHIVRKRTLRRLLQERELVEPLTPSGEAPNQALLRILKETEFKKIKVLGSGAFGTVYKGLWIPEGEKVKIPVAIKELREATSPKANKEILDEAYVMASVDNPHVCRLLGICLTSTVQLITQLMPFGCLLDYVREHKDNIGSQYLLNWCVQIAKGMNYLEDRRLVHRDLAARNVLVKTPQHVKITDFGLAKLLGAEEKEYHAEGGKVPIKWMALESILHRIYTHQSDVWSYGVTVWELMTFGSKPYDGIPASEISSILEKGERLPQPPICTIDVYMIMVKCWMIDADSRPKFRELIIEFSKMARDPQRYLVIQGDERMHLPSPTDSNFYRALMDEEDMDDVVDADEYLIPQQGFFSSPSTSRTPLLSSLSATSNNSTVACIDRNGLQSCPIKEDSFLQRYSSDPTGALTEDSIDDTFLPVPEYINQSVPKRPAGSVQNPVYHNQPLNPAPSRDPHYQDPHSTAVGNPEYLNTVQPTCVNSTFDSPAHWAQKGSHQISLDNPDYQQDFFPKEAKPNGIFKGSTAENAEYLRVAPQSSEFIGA

On to `C=CC(=O)Nc1cc(Nc2nccc(-n3cc(CN(C)C)c(-c4ccccc4)n3)n2)c(OC)cc1N1CCOCC1` [Compound T-0, reference compound], for which the half-maximal inhibitory concentration (IC50) in data set [1] worked out at 4.7 nM. Also, the IC50 in data set [2] amounted to 4.2 nM. In addition, in data set [3], the “inhibitory activity against EGFR mutant kinase (in words)” value is recorded as “significant inhibitory activity”. In data set [4], this molecule returned an IC50 of 200 to 450 nM. In addition, the IC50 in data set [5] was below 0.3 nM. This molecule also showed a half-inhibitory concentration (IC50) in data set [6] below 2 nM. In addition, in data set [7] (IV 0.5 mg/kg single dose), the AUC(0-t) turned out to be 477 ng·h/mL, the highest level (Cmax) was 323 ng/mL, the Tmax was determined as 0.08 h and the half-life was 3.78 h. Further, in data set [7] (IV 0.5 mg/kg single dose), the AUC(0-inf) worked out at 498 ng·h/mL, the clearance is 17.5 mL/min/kg, the MRT inf is 2.95 h and the Vd turned out to be 5.73 L/kg. Further, in data set [7] (PO 10 mg/kg single dose), the exposure AUC(0-t) is 1600 ng·h/mL, the Cmax was determined as 115 ng/mL, the time of peak concentration (Tmax) is 1.33 h and the half-life was 7.55 h. For the same molecule, in data set [7] (PO 10 mg/kg single dose), the AUC(0-inf) came out at 1800 ng·h/mL, the MRT inf was found to be 9.19 h, the “Cl—pred” value was 94.2 mL/min/kg and the “Vz—pred” value is 61.56 L/kg. This molecule also came in with a bioavailability in data set [7] of 16.7%.

Consider `[2H]c1c(C([2H])([2H])N(C)C)c(-c2ccccc2)nn1-c1ccnc(Nc2cc(NC(=O)C=C)c(N3CCOCC3)cc2OC)n1` [Compound T-1, N-(5-((4-(4-((dimethylamino)methyl-d2)-3-phenyl-1H-pyrazol-1-yl-5-d)pyrimidin-2-yl)amino)-4-methoxy-2-morpholinophenyl)acrylamide], for which the half-maximal inhibitory concentration (IC50) was 3.62 nM in data set [1]; 1.56 nM in data set [2]; 200 to 450 nM in data set [4]; below 0.3 nM in data set [5]; below 2 nM in data set [6].

Regarding `[2H]c1c([2H])c([2H])c(-c2nn(-c3ccnc(Nc4cc(NC(=O)C=C)c(N5CCOCC5)cc4OC)n3)cc2CN(C)C)c([2H])c1[2H]` [Compound T-2, N-(5-((4-(4-((dimethylamino)methyl)-3-(phenyl-d5)-1H-pyrazol-1-yl)pyrimidin-2-yl)amino)-4-methoxy-2-morpholinophenyl)acrylamide], the half-maximal inhibitory concentration (IC50) was 3.57 nM in data set [1]; 1.98 nM in data set [2]; 200 to 450 nM in data set [4]; below 0.3 nM in data set [5]; below 2 nM in data set [6].

Turning to `[2H]C([2H])([2H])Oc1cc(N2CCOCC2)c(NC(=O)C=C)cc1Nc1nccc(-n2cc(CN(C)C)c(-c3ccccc3)n2)n1` [Compound T-3, N-(5-((4-(4-((dimethylamino)methyl)-3-phenyl-1H-pyrazol-1-yl)pyrimidin-2-yl)amino)-4-(methoxy-d3)-2-morpholinophenyl)acrylamide], the half-inhibitory concentration (IC50) in data set [1] stood at 4.53 nM. The same molecule registered a half-inhibitory concentration (IC50) in data set [2] of 2.27 nM. In data set [4], this molecule had a half-inhibitory concentration (IC50) of 200 to 450 nM. The molecule also registered an IC50 in data set [5] below 0.3 nM. In addition, the IC50 in data set [6] was below 2 nM. In addition, in data set [7] (IV 0.5 mg/kg single dose), the AUC(0-t) was determined as 436 ng·h/mL, the maximum concentration (Cmax) is 299 ng/mL, the time of peak concentration (Tmax) was 0.08 h and the half-life was 3.56 h. Besides, in data set [7] (IV 0.5 mg/kg single dose), the AUC(0-inf) is 456 ng·h/mL, the clearance was 18.5 mL/min/kg, the MRT inf stood at 3.34 h and the Vd was 5.71 L/kg. Besides, in data set [7] (PO 10 mg/kg single dose), the exposure AUC(0-t) worked out at 1650 ng·h/mL, the peak concentration (Cmax) worked out at 120 ng/mL, the time of peak concentration (Tmax) stood at 4 h and the half-life is 7.48 h. Further, in data set [7] (PO 10 mg/kg single dose), the AUC(0-inf) came to 1920 ng·h/mL, the MRT inf stood at 8.67 h, the “Cl—pred” value was 88 mL/min/kg and the “Vz—pred” value turned out to be 56.99 L/kg. In data set [7], this molecule gave a bioavailability of 18.9%. The “Cmax, AUClast and oral availability (F %) compared with compound T-0 (in words)” value in data set [7] (orally) was “better metabolic parameters”.

For `[2H]C([2H])([2H])N(Cc1cn(-c2ccnc(Nc3cc(NC(=O)C=C)c(N4CCOCC4)cc3OC)n2)nc1-c1ccccc1)C([2H])([2H])[2H]` [Compound T-4, N-(5-((4-(4-((bis(methyl-d3)amino)methyl)-3-phenyl-1H-pyrazol-1-yl)pyrimidin-2-yl)amino)-4-methoxy-2-morpholinophenyl)acrylamide], the IC50 in data set [1] is 5.02 nM; in data set [2], 2.5 nM; in data set [4], 200 to 450 nM; in data set [5] it was below 0.3 nM; in data set [6], below 2 nM.

Take `[2H]c1c([2H])c([2H])c(-c2nn(-c3ccnc(Nc4cc(NC(=O)C=C)c(N5CCOCC5)cc4OC)n3)cc2CN(C([2H])([2H])[2H])C([2H])([2H])[2H])c([2H])c1[2H]` [Compound T-6, N-(5-((4-(4-((bis(methyl-d3)amino)methyl)-3-(phenyl-d5)-1H-pyrazol-1-yl)pyrimidin-2-yl)amino)-4-methoxy-2-morpholinophenyl)acrylamide]: the IC50 was 4.23 nM in data set [1]; 2 nM in data set [2]; 200 to 450 nM in data set [4]; below 0.3 nM in data set [5]; below 2 nM in data set [6].

What is called IC50 is the point on the concentration scale where inhibition reaches its midpoint. Broadly, the AUC(0-t) is the area under the concentration-time curve up to a stated or last time point. Lower therefore signals low exposure. What is called Cmax is the peak of the concentration-time curve. In general, Tmax refers to the time from dosing to the highest level. The half-life is how long it takes for the measured level to halve. A low value points to rapid decline. In general, bioavailability refers to dose-corrected exposure relative to a reference, in per cent.
